Entries after “also recorded” stand apart in the source; their conditions may differ. Like-named read-outs stand apart in the source and are kept apart here.
What was measured:
[1] = Spontaneous decomposition in solution (h.p.l.c. / nmr); format: physicochemical; conditions: for % of the original remaining: 0.2 M aqueous sodium phosphate pH 6.85, room temperature, h.p.l.c.
Description: This instability prevented full characterisation of the acid (I), so it was converted with diazomethane to its methyl ester (IV) in an overall yield of 16% from the benzyl ester (II) (A.G. Brown et al, J. Chem. Soc. Perkin Trans. I, 1984, 635). The spectral data obtained for the methyl ester (IV) were indistinguishable from those obtained by A. G. Brown et al 1984.
Benzyl 3-oxoethylidene-7-oxo-4-oxa-1-azabicyclo[3.2.0]heptane-2-carboxylate (II) (50 mg, 0. 17m mol) was dissolved in tetrahydrofuran (5 ml) and 0.2 M sodium phosphate adjusted to pH 6.85 (5 ml), and hydrogenated at ambient temperature and pressure for ten minutes with 10% palladium on carbon (40 mg). The reaction mixture was rapidly filtered and evaporated to dryness while the temperature was maintained below 10° C. The residue was immediately redissolved in D2O to give a solution of the title compound (III). δH(250 MHz, D20) inter alia E isomer 3.25 (1H, d, J 17.4 Hz, 6β-H), 3.65 (1H, dd, J 17.4 and 2.9 Hz, 6 α-H), 5.73 (1H, d, J 1.2 Hz, 2-H), 5.79 (1H, dd, J 8.3 and 1 Hz, 8-H), 5.94 (1H, d, 2.7 Hz, 5-H), 9.55 (1H, d, J 8.3 Hz, 9-H), Z isomer 3.29 (1H, d, J 17.3 Hz, 6β-H), 3.65 (1H, dd, J 17.4 and 2.9 Hz, 6 α-H), 5.27 (1H, s, 2-H), 5.50 (1H, d, J 8.2 Hz, 8-H), 6.00 (1H, d, J2.7 Hz, 5-H), and 9.70 (1H, d, J 8.2 Hz, 9-H). The E and Z isomers were assigned on the relative positions of their 8-proton resonance (Gerald Brooks+Eric Huit J.Chem.Soc. Perkin Trans. I (1983) 2513) and were in the ratio E-Z (2:1). Material prepared by the above hydrogenation with water substituting for the phosphate solution and adjustment of the pH of the reaction mixture to 6.5 with 0.1 M NaOH gave (III) (Yield 35% from NaOH consumed), λmax. (H2O) 262 nm; vmax.(KBr) 3 400, 1 792 (br), and 1 640 cm^−1 (br), […]; thin layer chromatography on silica 60 eluted with butan- 1-ol-ethanol-water (4:1:1) and visualised with Schiffs reagent gave a blue zone (Rf:0.52). Addition of a known weight of fumaric acid to the crude product solution followed by evaporation and nmr analysis indicated a yield of 20% by comparison of the intensity of the fumarate protons with the intensity of the aldehydic proton of (M). When this solution was allowed to stand at room temperature for 3.5 hours, (III) was seen to have decomposed to a yield of 3.2%.

[2] = biological target: Klebsiella E70 β-lactamase; experiment: β-lactamase inhibition by automated chromogenic substrate assay of Reading and Farmer; format: biochemical
Description: β-lactamase inhibition by (III): A solution of III was tested as a β-lactamase inhibitor by the automated chromogenic substrate assay of C. Reading and T. Farmeragainst Klebsiella E70 β-lactamase. Taking the yield of (III) from the hydrogenation reaction as 35% gave an I^50 with pre-incubation of 0.01 μg/ml and without pre-incubation of enzyme and inhibitor of 1μg/ml.

[3] = tested on: broken cell suspension (BCS) of S.clavuligerus SC2; experiment: Enzymic reduction of (III) to clavulanic acid by broken cell suspension, KaG bioassay; format: biochemical, Streptomyces clavuligerus
[4] = tested on: broken cell suspension (BCS) of S.clavuligerus SC2; experiment: as above; format: biochemical, Streptomyces clavuligerus; remark: listed apart in the source
From the text: Compound (I) was reduced to clavulanic acid by NADPH in the presence of a broken cell suspension of S. clavuligerus SC2 (Table 1). (SC2 is a reisolate of ATCC 27064). The clavulanic acid produced was detected by KaG bioassay (AG. Brown et al J. Antibiot., 1976, 29, 668) and chromatographic tapes loaded with the reaction mixture, were compared with standards to confirm the presence of clavulanic acid. The reduction was complete before a sample could be removed from the reaction vessel, but appeared to give clavulanic acid in only 14% yield. However, should the enzyme be capable of reducing only the Z isomer of (I) (the geometry of clavulanic acid), the yield is 42%.
Enzymic reduction of (III) to clavulanic acid:- solution of (III) (0.23 mg, 1 μmol, estimated by titration of acid (I)) in water ([…] 1μmol) was added to washed 48 hour S.clavuligerus SC2 cells which had been sonicated (EP 0213 914 example 20) (0.5 ml). The suspension was treated with 10 mM NADPH (0.1 ml, 1 umol), made up to one milliliter with 50 mM MOPS buffer at pH 7.0 and incubated in stoppered tubes at 26° C. Samples (0.2 ml) were removed, treated with methanol (0.2 ml) for 5 minutes, and centrifuged. The clear supernatants were made up to 1.6 ml with MOPS buffer and assayed on discs by the KaG method. Undiluted reaction mixture was applied to Whatman No. 1 chromatography tapes which were developed in either butan-1-ol-acetic acid-water (12:3:5) or butan-1-01-ethanol-water (7:1:2), dried, and visualised by application to a KaG bioassay plate. Standard clavulanic acid solutions were developed and visualised similarly.

[5] = tested on: β-lactamase; experiment: β-lactamase inhibitory activity (method not specified); format: biochemical
[6] = Boiled BCS + (III) + NADPH 1 mM

Which “% of the original remaining” value ([1]; after 35 minutes) does the source give for `O=CC=C1OC2CC(=O)N2C1C(=O)[O-].[Na+]` (stereo not shown) [(III), Sodium 3-Oxoethylidene-7-oxo-4-oxa-1-azabicyclo (3.2.0)heptane-2-carboxylate] here?
The value was 85%.

And the “% of the original remaining” value ([1]; after 53 minutes)?
Its value is 63%.

And the “yield remaining after decomposition on standing (nmr vs fumaric acid)” value ([1]; room temperature for 3.5 hours, initial yield 20%)?
The value was 3.2%.

What about the “time in which about half had decomposed” value ([1]; solution of the salt, room temperature, repeated h.p.l.c. analysis) of the same compound?
The value was “one”.

And the I50 with pre-incubation ([2]; with pre-incubation of enzyme and inhibitor, yield of (III) from hydrogenation taken as 35%)?
Its I50 with pre-incubation is 0.01 µg/mL.

What about the I50 without pre-incubation ([2]; without pre-incubation of enzyme and inhibitor, yield of (III) taken as 35%) of the same compound?
The I50 without pre-incubation was 1 µg/mL.

And the “Clavulanic Acid at time 0 mins (KaG bioassy)” value (“Clavulanic Acid at time 0 mins” below) ([3]; (III) + NADPH 1 mM, no BCS)?
The value was 8.8 µg/mL.

And the “Clavulanic Acid at time 60 mins” value ([3]; (III) + NADPH 1 mM, no BCS)?
The value was 7.2 µg/mL.

And the “Clavulanic Acid at time 0 mins” value ([3]; BCS + (III) + NADH 1 mM)?
Its value is 6.2 µg/mL.

What about the “Clavulanic Acid at time 60 mins” value ([3]; BCS + (III) + NADH 1 mM) of the same compound?
The value was 6.6 µg/mL.

What about the “Clavulanic Acid at time 0 mins” value ([3]; BCS + (III)) of the same compound?
The value was 8.0 µg/mL.

What about the “Clavulanic Acid at time 60 mins” value ([3]; BCS + (III)) of the same compound?
The value was 7.0 µg/mL.

And the “Clavulanic Acid at time 0 mins” value ([4]; BCS + (III) + NADPH 1 mM)?
Its value is 28.8 µg/mL.

And the “Clavulanic Acid at time 60 mins” value ([4]; BCS + (III) + NADPH 1 mM)?
The value was 27.2 µg/mL.

And the “Clavulanic Acid at time 0 mins” value [4, 6]?
The value was 6.6 µg/mL.

What about the “Clavulanic Acid at time 60 mins” value [4, 6] of the same compound?
The value was 6.6 µg/mL.

With `O=CC=C1CN2C(=O)CC2O1` (stereo not shown) [(V), 3-oxoethylidene-7-oxo-4-oxa-1-azabicyclo [3.2.0] heptane] as the compound, how does the “chemical and stereochemical stability” value ([1]; organic solution) read?
Its value is “chemically and stereochemically stable in organic solution”.

Which “β-lactamase inhibitory activity (in words)” value ([5]; chemically synthesised) does the source give for `O=CC=C1OC2CC(=O)N2C1C(=O)O` (stereo not shown) [Compound (I), 3-oxoethylidene-7-oxo-4-oxa-1-azabicyclo-[3.2.0] heptane-2-carboxylic acid] here?
The value was “shown to possess β-lactamase inhibitory activity; also recorded: Strong β-lactamase activity”.

And the “activity as a β-lactamase inhibitor relative to clavulanic acid” value ([5]; more active than clavulanic acid)?
Its value is “approximately 100 times”.

What about the “rate of decomposition compared with I 111 broth supernatant” value ([1]; (I) chemically synthesised from 2R, 5R clavulanic acid) of the same compound?
Its value is “same rate of decomposition”.

And the half-life ([1]; aqueous solution, read-out: half life in aqueous solution (converted))?
The half-life was ~30 min.

And the half-life ([1]; at 21° C., read-out: half-life)?
The half-life was ~30 min.

— patent US6692950B1, “Clavulanic acid dehydrogenase, preparation and use for the production of clavulanic acid” (SmithKline Beecham plc, priority 1993, dated 2004)
